Results from publication PMC10093845, “Inhibitory Activities of Samples on Tyrosinases Were Affected by Enzyme Species and Sample Addition Methods” (International Journal of Molecular Sciences, 2023).
Like-named read-outs stand apart in the source and are kept apart here. Blank lines part the entries; values can stand above or below the compound they belong to.

Tests used:
MTYR (mushroom TYR) [1] = biological target: T1, MTYR (mushroom TYR) (Agaricus bisporus, UniProt C7FF04); experiment: MTYR directly inhibitory activity; format: biochemical
T1 sequence (C7FF04 1-392): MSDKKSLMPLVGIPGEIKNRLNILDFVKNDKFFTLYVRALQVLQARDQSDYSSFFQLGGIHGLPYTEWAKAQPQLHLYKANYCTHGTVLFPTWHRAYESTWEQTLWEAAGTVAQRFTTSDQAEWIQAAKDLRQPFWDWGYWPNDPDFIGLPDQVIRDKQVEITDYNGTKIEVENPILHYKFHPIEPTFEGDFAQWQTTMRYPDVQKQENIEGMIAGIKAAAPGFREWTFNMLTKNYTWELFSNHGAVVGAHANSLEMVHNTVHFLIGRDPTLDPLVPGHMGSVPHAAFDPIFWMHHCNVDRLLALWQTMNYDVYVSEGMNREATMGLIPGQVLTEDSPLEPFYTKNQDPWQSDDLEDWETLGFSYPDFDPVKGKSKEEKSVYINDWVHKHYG
T1 sequence (G1K3P4 1-150 partner): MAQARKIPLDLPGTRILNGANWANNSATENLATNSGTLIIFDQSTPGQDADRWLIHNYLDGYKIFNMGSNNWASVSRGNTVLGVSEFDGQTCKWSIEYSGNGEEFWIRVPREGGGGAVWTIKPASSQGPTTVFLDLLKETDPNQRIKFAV
Experimental: The MTYR directly inhibitory activity was assayed according to our previous procedure. Briefly, the reaction media was 200 µL in 96-well plates. MTYR (40 µL, 30 U/mL) in PBS (20 mM, pH 6.8) was incubated with the corresponding compound (40 µL) at 25 °C for 10 min. Then, L-DOPA ([…], 8 mM) was added to each well as a substrate. The other steps and the calculation of MTYR directly inhibitory activity were the same as above method in Section 4.2.

B16F10 cells [2] = experiment: Intracellular melanin content; format: cell-based, murine; conditions: 100 μg/mL, α-MSH stimulated B16F10 cells, 48 h
Experimental: Measurement of intracellular melanin content was determined according to our previous procedure. Briefly, Cells were cultured by complete medium containing compounds for 48 h. Then, intracellular melanin was extracted by 1 M NaOH containing 10% DMSO. The absorbance of the dissolved melanin was obtained using a microplate reader at 405 nm. The melanin content of each treatment group was calculated with the negative control group as reference.

MTYR (mushroom TYR) [3] = biological target: T1, MTYR (mushroom TYR); experiment: Kinetic analysis of MTYR (Lineweaver-Burk); format: biochemical; conditions: L-DOPA substrate
Experimental: The experimental method was the same as Section 4.8, except for the substrate concentration and compound concentration. A series of experiments were performed to determine the type of inhibition.
The molarities of L-DOPA were 0.0625, 0.25, 1, 4 and 8 mM. […] The Km and Vmax of MTYR were determined by the Michaelis–Menten equation. The Lineweaver–Burk plot was used to display the data. Secondary replot of Lineweaver–Burk plot or intercept was used to display inhibition constant (Ki) and α.

BTYR mRNA = experiment: qPCR analysis of TYR gene; format: cell-based, murine; conditions: 100 μg/mL, 24 h, α-MSH stimulated
Experimental: Measurement of mRNA expression of TYR was determined according to our previous procedure. […] Total RNAs prepared were followed and qPCR analysis of TYR were carried on with β-actin as an internal control.

B16F10 cells [4] = experiment: Cell viability (CCK-8); format: cell-based, murine
Experimental: (§1) Referring to our previous methods. […] Measurement of cell viability was determined according to our previous procedure. In brief, cells were seeded into 96-well plates at a density of 1 × 10^4 cells/well and incubated for 24 h. Then, the culture medium was replaced with complete medium containing compound and further incubated at 37 °C for 48 h. After rinsing once with D-PBS, 100 µL DMEM containing 10% CCK-8 was added to each well. Followed by another 1 h incubation, the absorbance at 450 nm was measured. […] The cell viability was expressed as a percentage of the control.

[5] = biological target: T2, BTYR (intracellular TYR of B16F10 cells) (Mus musculus, UniProt P11344); experiment: BTYR indirectly inhibitory activity in cells cultured by compounds; format: cell-based, murine
T2 construct: The lysates, called BTYR, were centrifuged at 12,000 rpm for 10 min at 4 °C; endogenous in cells; host or cells: B16F10 murine melanoma cells
T2 sequence (P11344 19-533): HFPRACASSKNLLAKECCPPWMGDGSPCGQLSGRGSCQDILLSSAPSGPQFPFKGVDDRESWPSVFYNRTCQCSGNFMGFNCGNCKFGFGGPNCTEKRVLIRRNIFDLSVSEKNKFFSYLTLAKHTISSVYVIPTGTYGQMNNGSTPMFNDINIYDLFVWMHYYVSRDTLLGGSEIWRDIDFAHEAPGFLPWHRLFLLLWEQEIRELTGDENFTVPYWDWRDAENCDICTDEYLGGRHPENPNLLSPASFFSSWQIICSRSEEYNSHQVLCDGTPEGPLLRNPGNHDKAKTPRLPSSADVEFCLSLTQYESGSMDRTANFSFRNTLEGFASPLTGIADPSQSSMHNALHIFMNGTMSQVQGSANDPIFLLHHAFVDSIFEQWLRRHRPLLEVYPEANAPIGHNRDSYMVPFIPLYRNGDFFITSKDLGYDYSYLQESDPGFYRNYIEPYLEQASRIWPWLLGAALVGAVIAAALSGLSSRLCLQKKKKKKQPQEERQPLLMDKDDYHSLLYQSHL
Experimental: Referring to our previous methods. In short, B16F10 murine melanoma cells from Stem Cell Bank (Chinese Academy of Sciences, Shanghai, China) were cultured in DMEM supplemented with 10% FBS in a humidified atmosphere of 5% CO2 at 37 °C.
The BTYR indirectly inhibitory activity was assayed according to our previous procedure with slight modification. Cells were cultured by complete medium containing compounds for 48 h and lysed by 120 μL of lysis buffer to obtain crude BTYR extract. […] The molarities of EGCG were 25, 50, 100, 125, 150, 175 and 200 μM. The treatment group without samples was negative control.
In a reaction system of 100 μL, 20 μL of BTYR was mixed with 60 μL of 8 mM L-DOPA (the remaining volume was supplemented with 20 mM pH 6.8 PBS), and immediately placed at 475 nm for dynamic detection for 30 min. The absorbance was measured once per minute. The control group containing only BTYR (blank control and sample control) was set for synchronous detection to exclude background interference.
With negative control as the reference, the indirectly inhibitory activity of BTYR was calculated in the same way as in Section 4.2.

B16F10 cells [6] = conditions: previous studies; cited from earlier work
[7] = system: ATYR (crude TYR extracted from apple); experiment: ATYR indirectly inhibitory activity (apple slices soaked, then enzyme extracted); conditions: apple slices soaked in 1 mM for 10 min; water 0 ± 4% as negative control; negative = promotion
Experimental: The preparation of fresh-cut apple slices was the same as in Section 4.4. The preparation of crude ATYR was carried out by reference and slightly adjusted. […] Finally, these apple slices were used to extract ATYR. […] After the supernatant was divided, it was quick-frozen with liquid nitrogen, and then stored in the refrigerator at −80 °C. The supernatant was used for ATYR activity analysis. Apple slices, immersing in various test solutions for 10 min, were used to extract crude ATYR solution. […] The control group containing only ATYR (blank control and sample control) was set for synchronous detection to exclude background interference. With negative control as the reference, the indirectly inhibitory activity of ATYR was calculated in the same way as in Section 4.2.

[8] = biological target: T3, BTYR (TYR crude enzyme extract from B16F10 cells) (Mus musculus, UniProt P11344); experiment: BTYR directly inhibitory activity (TYR extraction followed by sample treatment, non-cellular system); format: biochemical, murine
T3 construct: The lysates, called BTYR, were centrifuged at 12,000 rpm for 10 min at 4 °C; endogenous in cells; host or cells: B16F10 murine melanoma cells
T3 sequence (P11344 19-533): T2 sequence (P11344 19-533)
Experimental: B16F10 cells at the exponential phase in 10 cm^2 cell culture dish were washed with D-PBS two times and incubated for 30 min at −20 °C in 1.16 mL of lysis buffer. The lysates, called BTYR, were centrifuged at 12,000 rpm for 10 min at 4 °C.
The reaction system in 96-well plate was 100 μL. 20 μL of BTYR was mixed with 20 μL compounds and incubated at 25 °C for 10 min, then 60 μL of 8 mM L-DOPA was added to start the reaction. A Synergy H1 microplate reader (BioTek Instruments, Inc., Winooski, VT, USA) was used to dynamically monitor the optical densities at 475 nm. Absorbance was measured every minute and sustained 30 min. The initial velocity (v0) of each reaction was represented by the slope of the initial linear range of the progress curve, and was used to calculate the relative enzyme activity of each treatment [16].
BTYR directly inhibitory activity compared to negative control could be expressed by following formula [16]. Δsample = sample − sample control, Δcontrol = negative control − blank control(1) kΔsample = (Δsamplet1 − Δsamplet0)/(t1 − t0), kΔcontrol = (Δcontrolt1 − Δcontrolt0)/(t1 − t0)(2) (3) BTYR direct inhibition %=1−kΔsample/kΔcontrol×100 […]

[9] = system: ATYR (crude TYR extracted from apple); experiment: ATYR directly inhibitory activity; format: biochemical; conditions: for IC50: sample in direct contact with ATYR, kojic acid inhibits only at high concentration (800–4000 µM)
Experimental: The preparation of fresh-cut apple slices was the same as in Section 4.4. The preparation of crude ATYR was carried out by reference and slightly adjusted. […] Finally, these apple slices were used to extract ATYR. […] After the supernatant was divided, it was quick-frozen with liquid nitrogen, and then stored in the refrigerator at −80 °C. The supernatant was used for ATYR activity analysis. In a reaction system of 200 μL, 40 µL ATYR was mixed with 40 µL corresponding compound in 96-well plates. After incubated at 25 °C for 10 min, L-DOPA (120 µL, 8 mM) was added to each well as a substrate. Once the substrate was added in reaction system, the formation of dopachrome was immediately measured at 475 nm for 30 min at 1 min intervals. […] The group setting and the calculation of ATYR directly inhibitory activity were the same as in Section 4.2.

MTYR = conditions: cited from earlier work
HTYR = conditions: cited from earlier work
Cell viability (CCK-8) = format: cell-based, murine; conditions: mouse, B16F10 melanoma cells, 48 h
Experimental: as §1

HMV-II = system: HMV-II; parameters: method as in PMID 15056856; conditions: concentration lower than 1 mM; cited from earlier work

SMILES: O=C(O[C@@H]1Cc2c(O)cc(O)cc2O[C@@H]1c1cc(O)c(O)c(O)c1)c1cc(O)c(O)c(O)c1 [EGCG, Epigallocatechin gallate]
- IC50 (MTYR (mushroom TYR) [1]; L-DOPA substrate): 1420 ± 61 µM
- MTYR directly inhibitory activity relative to kojic acid (MTYR (mushroom TYR) [1]; ratio of IC50): 1/15
- intracellular melanin content (B16F10 cells [2]): significantly reduce
- Inhibition type (MTYR (mushroom TYR) [3]): competitive
- Km (change with increasing compound molarity) (MTYR (mushroom TYR) [3]): increasing
- Vmax (change with increasing compound molarity) (MTYR (mushroom TYR) [3]): constant
- Ki (MTYR (mushroom TYR) [3]; replot of Lineweaver–Burk slopes): 170 µM
- mRNA expression of BTYR in cells (BTYR mRNA): significantly inhibit
- Cell Viability (%) (B16F10 cells [4]; 25 µM, 48 h): 100 ± 2%
- Cell Viability (%) (B16F10 cells [4]; 50 µM, 48 h): 98 ± 2%
- Cell Viability (%) (B16F10 cells [4]; 100 µM, 48 h): 95 ± 6%
- Cell Viability (%) (B16F10 cells [4]; 200 µM, 48 h): 106 ± 1%
- Cell Viability (%) (B16F10 cells [4]; 400 µM, 48 h): 66 ± 4%
- Cell Viability (%) (B16F10 cells [4]; 600 µM, 48 h): 4 ± 0%
- Cell Viability (%) (B16F10 cells [4]; 800 µM, 48 h): 2 ± 1%
- Cell Viability (%) (B16F10 cells [4]; 1000 µM, 48 h): 1 ± 1%
- Cell Viability (%) (B16F10 cells [4]; 1200 µM, 48 h): −1 ± 0%
- intracellular BTYR activity ([5]; 100 μg/mL, α-MSH stimulated B16F10 cells, 48 h): inhibit intracellular BTYR activity
- IC50 ([5]; cells cultured with compound 48 h, then TYR extracted): 195 ± 3 µM
- concentration significantly reducing melanin content of B16F10 cells in a dose-dependent manner (B16F10 cells [6]): 55 to 218 µM
- ATYR indirectly inhibitory activity [7]: −7 ± 7%
- catalytic activity of BTYR in non-cellular system ([8]; 100 μg/mL): could not
- BTYR direct inhibition rate ([8]; 0.025–2.4 mM EGCG): < 50%
- IC50 [9]: 1770 ± 20 µM

SMILES: Oc1ccc(O)cc1 [hydroquinone]
- IC50 (MTYR; read-out: IC50 on MTYR): 1.1 µM
- activity on HTYR relative to that on MTYR (HTYR): 1/4000
- IC50 (HTYR; read-out: IC50 on HTYR): 4400 µM

- ATYR indirectly inhibitory activity [7]: −71 ± 4%
- EC50 ([9]; low concentration (12.5–400 µM) of kojic acid, read-out: EC50, promotion of ATYR activity): 96 ± 4 µM
- IC50 [9]: 2110 ± 20 µM
SMILES: O=c1cc(CO)occ1O [kojic acid]
- intracellular melanin content (B16F10 cells [2]): significantly reduce
- mRNA expression of BTYR in cells (BTYR mRNA): significantly inhibit
- viability at 48 h, 25 µM (Cell viability (CCK-8); 25 µM): 100 ± 4%
- viability at 48 h, 50 µM (Cell viability (CCK-8); 50 µM): 101 ± 2%
- viability at 48 h, 100 µM (Cell viability (CCK-8); 100 µM): 95 ± 1%
- viability at 48 h, 200 µM (Cell viability (CCK-8); 200 µM): 90 ± 3%
- viability at 48 h, 400 µM (Cell viability (CCK-8); 400 µM): 90 ± 3%
- viability at 48 h, 600 µM (Cell viability (CCK-8); 600 µM): 96 ± 5%
- viability at 48 h, 800 µM (Cell viability (CCK-8); 800 µM): 99 ± 4%
- concentration significantly reducing melanin content of B16F10 cells in a dose-dependent manner (B16F10 cells [6]): 175 to 700 µM

SMILES: OC[C@H]1O[C@H](Oc2ccc(O)cc2)[C@H](O)[C@@H](O)[C@@H]1O [α-arbutin]
- inhibition of the diphenolase activity of MTYR (MTYR): could not inhibit
- effect on growth of HMV-II (HMV-II): did not inhibit the growth

- ATYR indirectly inhibitory activity [7]: 80 ± 0%
SMILES: OC[C@H]1O[C@@H](Oc2ccc(O)cc2)[C@H](O)[C@@H](O)[C@@H]1O [β-arbutin]
- Cell Viability (%) (B16F10 cells [4]; 25 µM): 108 ± 2%
- Cell Viability (%) (B16F10 cells [4]; 50 µM): 115 ± 4%
- Cell Viability (%) (B16F10 cells [4]; 100 µM): 125 ± 2%
- Cell Viability (%) (B16F10 cells [4]; 200 µM): 138 ± 3%
- Cell Viability (%) (B16F10 cells [4]; 400 µM): 171 ± 1%
- Cell Viability (%) (B16F10 cells [4]; 600 µM): 195 ± 3%
- Cell Viability (%) (B16F10 cells [4]; 800 µM): 206 ± 0%
- Cell Viability (%) (B16F10 cells [4]; 1000 µM): 211 ± 1%
- Cell Viability (%) (B16F10 cells [4]; 1200 µM): 222 ± 2%
- IC50 (MTYR; read-out: IC50, diphenolase activity of MTYR): 8400 µM
- concentration significantly reducing melanin content of B16F10 cells in a dose-dependent manner (B16F10 cells [6]): 43.8 to 700 µM
- promotion of ATYR activity (max) ([9]; 0.025–320 mM β-arbutin, direct): ≤ 21%
